From PubChem BioAssay (NCI)
Several values for one entry are separate records, joined by “and”; a condition that tells them apart may be missing. Equal values may be shown once.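 These data come from cells grown in 96-well plates and exposed to compound for 48 hours at five concentrations. Here, GI50 denotes the concentration required for 50% inhibition of growth. At the TGI there is no net growth.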

Assays:
Assay in all cases: NCI anticancer screen, dose series, 48 h
TK-10 renal = tested on: TK-10 renal
SK-OV-3 ovarian = tested on: SK-OV-3 ovarian
SR leukemia = tested on: SR leukemia
NCI-H460 lung = tested on: NCI-H460 lung
HT29 colon = tested on: HT29 colon
RXF 393 renal = tested on: RXF 393 renal
HS 578T breast = tested on: HS 578T breast
A549 NSCLC = tested on: A549 NSCLC
SK-MEL-28 melanoma = tested on: SK-MEL-28 melanoma
SK-MEL-2 melanoma = tested on: SK-MEL-2 melanoma

Row | SMILES | GI50 (TK-10 renal) | TGI (TK-10 renal) | GI50 (SK-OV-3 ovarian) | TGI (SK-OV-3 ovarian) | GI50 (SR leukemia) | TGI (SR leukemia) | GI50 (NCI-H460 lung) | TGI (NCI-H460 lung) | GI50 (HT29 colon) | TGI (HT29 colon) | GI50 (RXF 393 renal) | TGI (RXF 393 renal) | GI50 (HS 578T breast) | TGI (HS 578T breast) | GI50 (A549 NSCLC) | TGI (A549 NSCLC) | GI50 (SK-MEL-28 melanoma) | TGI (SK-MEL-28 melanoma) | GI50 (SK-MEL-2 melanoma) | TGI (SK-MEL-2 melanoma)
1 | COc1cc(/C=C/C(=O)c2cc(OC)c(OC)c(OC)c2)cc(OC)c1OC | 4.42 µM | 59.2 µM | 11.5 µM | > 100 µM | 1.46 µM | 8.41 µM | 1.89 µM | 4.07 µM | 3.64 µM | 15 µM | 2.81 µM | 11.4 µM | 2.76 µM | 59.1 µM | 3.74 µM | 46.1 µM | 8.57 µM | 24.3 µM |  | 
2 | CC(C)(C)n1cc(-c2ccnc(NCCNS(=O)(=O)c3cccc4ccccc34)c2)c(-c2cccc(F)c2)n1 | 18.3 µM | 40.5 µM | 26 µM | > 100 µM | 9.27 µM | > 100 µM | 20 µM | 56.7 µM | 5.25 µM | 23.9 µM | 12.4 µM | 30.2 µM | 16.7 µM | 46 µM | 16.7 µM | 76.6 µM | 16.6 µM | 37 µM | 21.4 µM | 57.9 µM
3 | C[C@@]12CCC[C@@](C)(C(=O)O)C1CC[C@@]13CC(=O)[C@@](CO)(CCC12)C3 (some centres undefined) | > 100 µM | > 100 µM | > 100 µM | > 100 µM | > 100 µM | > 100 µM | > 100 µM | > 100 µM | > 100 µM | > 100 µM | > 100 µM | > 100 µM | > 100 µM | > 100 µM | > 100 µM | > 100 µM | > 100 µM | > 100 µM | > 100 µM | > 100 µM
4 | CN1CCN(c2cc(Nc3cc(C4CC4)[nH]n3)nc(Nc3ccc(CC(=O)NCc4cccc(F)c4)cc3)n2)CC1 | 2.92 µM | 16.1 µM | 0.932 µM | 12.9 µM | 0.293 µM | > 20.4 µM | 0.536 µM | 3.68 µM | 0.379 µM | 11.6 µM | 0.404 µM | 1.71 µM | 0.28 µM | 2.34 µM | 0.77 µM | 11.3 µM | 0.971 µM | 2.46 µM | 1.99 µM | 9.32 µM
5 | CC(C)CC(=O)CC(O)C(Cl)(Cl)Cl (centres undefined) |  | > 100 µM |  | > 100 µM |  | > 100 µM |  |  |  | > 100 µM |  | > 100 µM |  | > 100 µM |  | > 100 µM |  | > 100 µM |  | > 100 µM
6 | C=C1C(=O)O[C@H]2[C@H]1CC(=O)/C(C)=C\CC[C@@]1(C)O[C@@H]21 | 1.93 µg/mL | 5.38 µg/mL | 7.86 µg/mL | 17.4 µg/mL | 0.759 µg/mL | 9.5 µg/mL | 3.83 µg/mL | 8.08 µg/mL | 1.29 µg/mL | 4.32 µg/mL | 2.95 µg/mL | 9.41 µg/mL | 4.43 µg/mL | 9.16 µg/mL | 5.21 µg/mL | 11.3 µg/mL | 1.51 µg/mL | 6.11 µg/mL | 3.99 µg/mL | 8.47 µg/mL
7 | CC(C)(C)c1nnc2n(c1=O)N=CC(c1ccc(Br)cc1)S2 (centres undefined) | 34.7 µM | > 100 µM | 89.9 µM | > 100 µM | 24.2 µM | 80.7 µM | 30.1 µM | > 100 µM | 43.8 µM | > 100 µM | 23.6 µM | 82.5 µM | 35.2 µM | 91.1 µM | 43 µM | > 100 µM | 34.2 µM | > 100 µM | 25.3 µM | 66.1 µM
8 | Nc1c(O)c(S(=O)(=O)O)c(O)c2c1C(=O)c1ccccc1C2=O | 2.91 µM | 9.73 µM | 1.98 µM | 5.36 µM | 2.03 µM | 7.17 µM | 2.86 µM | 22 µM | 2.72 µM | 10.4 µM | 3.37 µM | > 100 µM | 4.69 µM | > 100 µM | 2.9 µM | 12 µM | 4.09 µM | > 100 µM | 2.25 µM | 6.21 µM
9 | Cc1ccc(-n2c(-c3ccc(Cl)cc3)cs/c2=N\NC(=O)COc2n[nH]c(=O)c3ccccc23)cc1 | 52.7 µM | > 100 µM | 57.9 µM | > 100 µM | > 100 µM | > 100 µM | > 100 µM | > 100 µM | > 100 µM | > 100 µM | 30.8 µM | > 100 µM | 27.5 µM | > 100 µM | > 100 µM | > 100 µM | > 100 µM | > 100 µM | > 100 µM | > 100 µM
10 | Oc1ccc(SCc2ccc(NCc3ccccc3)cc2)cc1 |  | > 100 µM |  | > 100 µM |  | 47.6 µM |  | > 100 µM |  | 48.3 µM |  | 78.8 µM |  | > 100 µM |  | 56.7 µM |  | > 100 µM |  | 61.1 µM
11 | O=[N+]([O-])c1ccc2c(c1)S(=O)c1ccccc1-2 (centres undefined) |  | > 100 µM |  | > 100 µM |  | > 100 µM |  | > 100 µM |  | > 100 µM |  |  |  | > 100 µM |  | > 100 µM |  | > 100 µM |  | > 100 µM
12 | COc1ccc(Cn2cc(Cn3c(=O)c(-c4nc5ccccc5[nH]4)cc4ccccc43)nn2)c(OC)c1OC | 0.572 µM and 1.02 µM |  |  |  | 0.291 µM | > 100 µM | 0.18 µM | 0.893 µM | 0.0712 µM | 4.05 µM | 0.129 µM | 0.49 µM | 0.0778 µM and 0.168 µM |  | 0.213 µM and 0.477 µM |  | 0.539 µM and 0.912 µM | 1.66 µM and 4.61 µM | 0.676 µM | 2.21 µM
13 | Oc1ccc(-c2nc3ccc4[nH]ncc4c3c3c2CCCC3)c2cccnc12 | 0.496 µM | 7.01 µM | 0.509 µM | 2.26 µM | 0.12 µM | 7.79 µM | 0.122 µM | 0.863 µM | 1.09 µM | 6.73 µM | 0.266 µM | 2.44 µM | 0.163 µM | 2.67 µM | 0.134 µM | 2.14 µM | 0.498 µM | 8.61 µM | 0.452 µM | 3.5 µM
14 | CS(=O)(=O)CS(=O)CS(=O)CS(=O)CC(NC(=O)CCC(N)C(=O)O)C(=O)O (centres undefined) |  | > 100 µM |  |  |  | > 100 µM |  | > 100 µM |  | > 100 µM |  |  |  | > 100 µM |  | > 100 µM |  | > 100 µM |  | > 100 µM
